Assay results reported in article PMC8842601, “Antimicrobial, Cytotoxic and Oxidative Stress Inhibitory Activities of Terpenoids and Flavonols from Senegalia nigrescens (Oliv.) P.J.H. Hurter” (Iranian Journal of Pharmaceutical Research : IJPR, 2021).
Converted amounts (≈) assume the structure as drawn.

How the values were obtained:
[1] = test system: Candida albicans ATCC 10231; assay: Microplate serial dilution MIC assay (resazurin); assay type: cell-based; conditions: ATCC10231, C. albicans ATCC 10231, 24 h at 37 °C, tested 7.8-1000 µg/mL
Description: (§1) Three microorganisms used in this study, two bacterial strains (Escherichia coli ATCC 25922 - Gram-negative and Staphylococcus aureus ATCC 25923 - Gram-positive) and a fungus (Candida albicans ATCC 10231) were procured from Anatech Instruments (Pty) Ltd, Randburg, Gauteng, South Africa (Anatech, Kwik-stick®). Escherichia coli and S. aureus were cultured in nutrient agar while the fungus (C. albicans ATCC 10231) was cultured on sabouraud dextrose agar (SDA) and incubated for 24 h under aerobic conditions at 37 °C. Pure colonies of microorganisms from the agar were transferred onto nutrient broth and sabouraud dextrose broth (SDB) to obtain an overnight culture. Compounds 1 – 6 were weighed and dissolved in 5% Dimethyl sulfoxide (DMSO) to a final working stock solution of 4 mg/mL. Standard antibiotics Ciprofloxacin and Amphotericin-B were also dissolved in 5% DMSO. The samples were kept at 20 °C in the dark until used. Antimicrobial activity was done using the microplate serial dilution method by Eloff, ([14]). The minimum inhibitory concentration (MIC) was defined as the lowest concentration of the compound capable of inhibiting microbial growth. The microorganisms were adjusted according to 0.5 McFarland standard solution to a final concentration of 1.5 × 10^4 CFU/mL in sterile 0.85% sodium chloride (NaCl) solution. Compounds were tested at the concentration range of 7.8-1000 µg/mL in 96 well plates and incubated with microorganisms for 24 h at 37 °C. Ciprofloxacin and Amphotericin-B were used as positive controls for bacterial and fungal assays, respectively. In addition, sterile distilled 5% DMSO was used as a negative control. A staining reagent, 50 µL Resazurin sodium salt (0.2 mg/mL) was used as an indicator of microbial growth and the MIC was visually determined ([15]).

[2] = test system: Escherichia coli ATCC 25922; assay: Microplate serial dilution MIC assay (resazurin); assay type: cell-based; conditions: ATCC25922, E. coli ATCC 25922, 24 h at 37 °C, tested 7.8-1000 µg/mL
Description: as §1

[3] = test system: Staphylococcus aureus ATCC 25923; assay: Microplate serial dilution MIC assay (resazurin); assay type: cell-based; conditions: ATCC25923, S. aureus ATCC 25923, 24 h at 37 °C, tested 7.8-1000 µg/mL
Description: as §1

MDA-MB-231 cells = assay: MTT cytotoxicity assay on breast cancer cells; assay type: cell-based, human; conditions: for IC50: Homo sapiens, MDA-MB-231 breast cancer cells, MTT, 24 h; for selectivity index (SI): toxicity on RAW264.7 compared to MDA-MB-231 cancer cells
Description: (§2) Cytotoxicity and antiproliferative effects of compounds were evaluated against Murine macrophage cells (RAW264.7) and breast adenocarcinoma cancer cells (MDA-MB-231) using the spectrophotometric, 3-(4,5-dimethylthiazol-2-yl)-2,5-diphenyltetrazolium bromide (MTT) assay ([16]). Cells (5 × 10^4 cell/well) were seeded in Dulbecco’s modified eagle’s medium (DMEM; Gibco) in a 96 well plate for 24 h incubation at 37 °C in 5% CO2 and treated with compounds (2.5 - 200 µg/mL) and positive control, Doxorubicin (2.5 - 200 µM). Untreated cells and 5% DMSO treated cells were assayed as negative and solvent control, respectively. After 24 h incubation, 20 µL MTT dye (5 mg/mL) was pipetted in all wells including wells with untreated cells, and incubated for 4 h. The medium was aspirated and 100 µL of DMSO was added to all the wells to dissolve the formazan crystals and the optical density (OD) was measured after an hour at 570 nm using a microplate reader.

RAW264.7 cells [4] = assay: MTT cytotoxicity assay on normal macrophage cells; assay type: cell-based; conditions: Mus musculus, RAW264.7 normal murine macrophage cells, 24 h
Description: as §2

RAW264.7 cells [5] = assay: LPS-induced intracellular ROS production (H2DCF-DA assay); assay type: cell-based, murine; conditions: RAW264.7, compound 10 µg/mL, LPS 10 µg/mL; for ROS production level: relative to LPS-treated cells
Description: Lipopolysaccharide (LPS)-induced reactive oxygen species (ROS) production was probed using an oxidative cell-permeant fluorescent dye 2',7'-dichlorodihydrofluorescein diacetate (H2DCF-DA) ([17]). RAW264.7 cells (5 × 10^4 cells/well) were seeded overnight into a 96 well plate and treated with compounds (10 µg/mL) at concentrations ≤ IC50 values and LPS (10 µg/mL) for 24 h at 37 °C in 5% CO2 rich incubator, then 10 μM H2DCF-DA dye (100 µL) was added for an hour. The fluorescence intensity which correlates to ROS production was measured on a microplate reader at 485 and 535 nm excitation and emission, respectively. Data obtained were subjected to analysis using GraphPad Prism (version 8.2).
Inflammation is a physiological response stimulated by the organism as a way of overcoming pathogenic events employed as a defense mechanism. However, an unregulated inflammatory response can lead to several diseases, including cancer. ROS-inducing approaches rely on the fact that increasing the ROS level over the cytotoxic threshold can result in cellular impairment, damaging DNA, RNA, proteins and lipids in normal cells, even though macrophage cells cannot phagocytize cancerous cells, but release a reasonable amount of pro-inflammatory cytokines that quench cancer cells yet are cytoprotective to normal cells ([6]). In this regard, it was considered that the compounds tested would be able to reduce the production of LPS-induced ROS in normal macrophages. Determination of ROS production in RAW264.7 cells was conducted using the non-toxic IC50 value of 10 µg/mL for all compounds (Table 2). Cells were pre-treated with compounds for 20 h and LPS was added in all treated cells except the untreated control cells. Thereafter H2DCFDA was introduced to the cells. […]
Figure 3 Effects of S. nigrescens compounds 1-6 on LPS-induced ROS production by RAW264.7 cells measured by a micro plate reader (Thermo Scientific Varioskan Flash). […] Experiments were conducted in triplicate and data is expressed as the mean ± SD with p-values calculated against control ^**p < 0.01; ^***p < 0.001

[6] = test system: Escherichia coli, Staphylococcus aureus and Candida albicans; assay: Microplate serial dilution MIC assay, stated across the three strains; assay type: cell-based; conditions: across the three strains (E. coli, S. aureus, C. albicans)
Description: as §1, with “The microorganisms were adjusted according to 0.5 McFarland standard solution to a final concentration of 1.5 × 10^4 CFU/mL in sterile 0.85% sodium chloride (NaCl) solution. Compounds were tested at the concentration range of 7.8-1000 µg/mL in 96 well plates and incubated with microorganisms for 24 h at 37 °C. Ciprofloxacin and Amphotericin-B were used as positive controls for bacterial and fungal assays, respectively. In addition, sterile distilled 5% DMSO was used as a negative control.” left out

LPS-induced ROS = test system: LPS-induced ROS; design: method as in PMID 18254591, PMID 30302324; conditions: read-out: IC50, inhibition of LPS-induced ROS; cited from earlier work
LPS-induced RNS = test system: LPS-induced RNS; design: method as in PMID 18254591, PMID 30302324; conditions: read-out: IC50, inhibition of LPS-induced RNS; cited from earlier work
S. aureus = test system: S. aureus; design: method as in PMID 35914415; conditions: reducing cell surface hydrophobicity and membrane permeability; cited from earlier work

MIC [1] | MIC [2] | MIC [3] | SMILES | IC50 (MDA-MB-231 cells) | selectivity index (SI) (MDA-MB-231 cells) | IC50 (RAW264.7 cells [4]) | ROS production level (RAW264.7 cells [5]) | MIC [6] | reduction of ROS (RAW264.7 cells [5]) | IC50 (LPS-induced ROS) | IC50 (LPS-induced RNS) | MIC (S. aureus)
62.5 µg/mL (≈ 205 µM) | 250 µg/mL (≈ 821 µM) | 125 µg/mL (≈ 411 µM) | CC1=CC23CCC4C(C)(CO)CCCC4(CO)C2CCC1C3 (stereo not drawn) [Compound 3, ent-kaur-15-en-18,20-diol] | 12.6 µg/mL (≈ 41.4 µM) | 1.46 | 18.5 µg/mL (≈ 60.8 µM) | – | – | – | – | – | –
31.2 µg/mL (≈ 103 µM) | 62.5 µg/mL (≈ 207 µM) | 31.2 µg/mL (≈ 103 µM) | O=c1c(O)c(-c2ccc(O)c(O)c2)oc2cc(O)cc(O)c12 [Compound 5, quercetin] | 20.6 µg/mL (≈ 68.2 µM) | 1.09 | 22.6 µg/mL (≈ 74.8 µM) | below 50% | – | – | – | – | –
– | – | – | C=C(CO)C1CCC2(C)CCC3(C)C(CCC4C5(C)CCC(O)C(C)(C)C5CCC43C)C12 (stereo not drawn) [Compound 2, 30-hydroxylup-20(29)-en-3β-ol] | 11.9 µg/mL (≈ 26.8 µM) | 1.92 | 22.8 µg/mL (≈ 51.5 µM) | – | ≥ 250 µg/mL | – | – | – | –
– | – | – | C=C(C=O)C1CCC2(C)CCC3(C)C(CCC4C5(C)CCC(O)C(C)(C)C5CCC43C)C12 (stereo not drawn) [Compound 1, 3β-hydroxy-20(29)-en-lupan-30-al] | 26.6 µg/mL (≈ 60.5 µM) | – | 16.9 µg/mL (≈ 38.3 µM) | – | ≥ 250 µg/mL | – | – | – | –
– | – | – | O=c1c(O)c(-c2ccc(O)c(O)c2)oc2c(O)c(O)ccc12 [Compound 4, melanoxetin] | 22.2 µg/mL (≈ 73.4 µM) | – | 15.8 µg/mL (≈ 52.3 µM) | – | – | approximately 40% | 12.5 µM | 6.9 µM | –
– | – | – | O=c1cc(-c2ccc(O)cc2)oc2c([C@@H]3O[C@H](CO)[C@@H](O)[C@H](O)[C@H]3O)c(O)cc(O)c12 [Apigenin-8-C-glucoside] | – | – | – | – | – | – | – | – | 126 µg/mL (≈ 291 µM)
– | – | – | COc1cccc2c1C(=O)c1c(O)c3c(c(O)c1C2=O)C[C@@](O)(C(=O)CO)C[C@@H]3O[C@H]1C[C@H](N)[C@H](O)[C@H](C)O1 [doxorubicin, reference compound] | 9.35 µg/mL (≈ 17.2 µM) | 1.13 | 10.6 µg/mL (≈ 19.5 µM) | – | – | – | – | – | –
31.2 µg/mL (≈ 98.8 µM) | 62.5 µg/mL (≈ 198 µM) | 31.2 µg/mL (≈ 98.8 µM) | COc1c(-c2ccc(O)c(O)c2)oc2cc(O)cc(O)c2c1=O [Compound 6, quercetin-3-O-methyl ether] | 14 µg/mL (≈ 44.4 µM) | 2.04 | 28.7 µg/mL (≈ 90.8 µM) | below 50% | – | – | – | – | –
